Where two headings read alike, the source gives them in different places.
Tests used:
[1] = system: phospho-serine 2056 DNA-PK in HCT116 cells; experiment: DNA-PK phosphorylation at serine 2056 (cellular), ELISA in bleomycin-treated HCT116 cells; assay type: cell-based; conditions: bleomycin-treated HCT116 cells, read-out: IC50 pDNA-PK
Summary of the method: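 HCT116, MEM alpha + 10% FCS, 37 °C/10% CO2, seeded o/n. Cpd + 10 μM bleomycin, 6 h. ELISA, chemiluminescence; phospho/total DNA-PKcs ratio, DMSO = blank.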

Kv11.1 (hERG) channel = Kv11.1 (hERG) channel (Homo sapiens (Human), UniProt Q12809); experiment: Kv11.1 ion channel binding assay (Predictor hERG fluorescence polarisation); conditions: class symbol marked with asterisk (*)
Sequence of Kv11.1 (hERG) channel (Q12809 whole entry): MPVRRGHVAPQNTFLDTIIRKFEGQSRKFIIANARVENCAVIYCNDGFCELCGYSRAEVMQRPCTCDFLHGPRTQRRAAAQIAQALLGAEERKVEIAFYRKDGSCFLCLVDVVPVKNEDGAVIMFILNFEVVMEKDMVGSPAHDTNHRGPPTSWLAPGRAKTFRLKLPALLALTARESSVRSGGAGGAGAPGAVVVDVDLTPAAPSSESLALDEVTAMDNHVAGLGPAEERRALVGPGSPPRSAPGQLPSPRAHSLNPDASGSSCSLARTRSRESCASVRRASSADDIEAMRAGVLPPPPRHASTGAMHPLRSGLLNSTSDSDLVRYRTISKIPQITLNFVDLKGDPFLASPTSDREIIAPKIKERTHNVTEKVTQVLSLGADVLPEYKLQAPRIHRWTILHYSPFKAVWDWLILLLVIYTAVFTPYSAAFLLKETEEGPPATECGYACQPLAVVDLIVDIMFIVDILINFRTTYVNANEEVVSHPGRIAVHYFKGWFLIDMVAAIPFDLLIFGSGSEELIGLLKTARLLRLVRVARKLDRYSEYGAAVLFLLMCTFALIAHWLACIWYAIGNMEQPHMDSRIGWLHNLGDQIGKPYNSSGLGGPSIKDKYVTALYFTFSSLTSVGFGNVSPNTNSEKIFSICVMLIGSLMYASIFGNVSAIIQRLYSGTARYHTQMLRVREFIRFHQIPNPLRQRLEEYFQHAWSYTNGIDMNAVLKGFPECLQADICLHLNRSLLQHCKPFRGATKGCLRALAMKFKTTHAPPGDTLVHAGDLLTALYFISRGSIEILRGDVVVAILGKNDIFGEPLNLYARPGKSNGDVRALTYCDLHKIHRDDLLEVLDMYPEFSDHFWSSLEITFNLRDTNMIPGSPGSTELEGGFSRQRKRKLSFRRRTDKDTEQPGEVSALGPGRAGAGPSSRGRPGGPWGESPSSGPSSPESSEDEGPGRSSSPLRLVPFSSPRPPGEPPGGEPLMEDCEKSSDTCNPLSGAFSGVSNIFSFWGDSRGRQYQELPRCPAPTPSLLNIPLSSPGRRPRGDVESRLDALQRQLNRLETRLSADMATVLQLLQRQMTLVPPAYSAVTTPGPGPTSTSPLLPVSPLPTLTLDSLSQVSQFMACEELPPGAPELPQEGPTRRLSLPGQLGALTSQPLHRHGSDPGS
Procedure: D) Kv11.1 Ion Channel Binding Assay
Kv11.1 (hERG=human ether a go-go related […]) is a cardiac K^+ channel which should if possible not interact with the test substances. This interaction is determined quantitatively with the aid of the Predictor™ hERG Fluorescence Polarizations (FP) Assays from Life Technologies. In the case of this assay principle, cardiomyocyte cell membranes having a certain proportion of Kv11.1 channels are isolated. A dye-labelled Kv11.1 binding partner gives a high fluorescence polarisation signal by interaction with the Kv11.1. In the case of displacement of the dye, a reduction in the fluorescence polarisation signal occurs.
The assay is carried out automatically as follows: 15 nl of the test substances (highest concentration: 10 mM, 10 concentrations: dilution factors 1:3.16, DMSO) are transferred into an empty microtitre plates having 384 wells by means of an acoustic pipetter. 3 μl of the isolated membranes are subsequently added. Membranes and test substances are incubated at 22° C. for 15 min (+/−5 min). In the next step, the dye-labelled binding partner is added, followed by incubation at 22° C. After incubation for two hours, the measurement of the fluorescence polarisation is carried out on an Envision multimode Reader. Measured raw data are standardised with the aid of Genedata Assay Analyzer. The IC50 and % effect values are calculated in Genedata Condoseo.

[2] = Homo sapiens, HCT-116, phospho-serine 2056 DNA-PK

In the case of `OC(c1ccc(F)c(-c2ncnc3cc(N4CCOCC4)ccc23)c1)c1nccn2ncnc12` (stereo not shown) [Example 279, [4-Fluoro-3-(7-morpholin-4-yl-quinazolin-4-yl)-phenyl]-[1,2,4]-triazolo[1,5-a]-pyrazin-8-ylmethanol], the IC50 [1, 2] is reported as 5 to 10 µM and the “Ki [Kv1.11 hERG]” value (Kv11.1 (hERG) channel) is reported as “A*”.
In the case of `COc1ccc(C(O)c2ccc(F)c(-c3ncnc4cc(N5CCOCC5)cc(F)c34)c2)nn1` (stereo not shown) [Example 256, [4-Fluoro-3-(5-fluoro-7-morpholin-4-yl-quinazolin-4-yl)-phenyl]-(6-methoxy-pyridazin-3-yl)-methanol], the IC50 ([1]; phospho-serine 2056 DNA-PK) is reported as under 0.5 µM and the “Ki [Kv1.11 hERG]” value (Kv11.1 (hERG) channel) is reported as “A*”.
In the case of `CN1N=C(C(O)c2cc(-c3ncnc4cc(N5CCOCC5)ccc34)c(F)cc2Cl)CCC1=O` (stereo not shown) [Example 288, 6-{[2-Chloro-4-fluoro-5-(7-morpholin-4-yl-quinazolin-4-yl)-phenyl]hydroxy-methyl}-2-methyl-4,5-dihydro-2H-pyridazin-3-one], the IC50 [1, 2] is reported as 5 to 10 µM and the “Ki [Kv1.11 hERG]” value (Kv11.1 (hERG) channel) is reported as “A*”.
For `CNC(=O)C(c1ccc(F)c(-c2ncnc3cc(N4CCOCC4)ccc23)c1)c1ncccc1Cl` (stereo not shown) [Example 230, 2-(3-Chloro-pyridin-2-yl)-2-[4-fluoro-3-(7-morpholin-4-yl-quinazolin-4-yl)-phenyl]-N-methyl-acetamide], the IC50 ([1]; phospho-serine 2056 DNA-PK) was 5 to 10 µM and the “Ki [Kv1.11 hERG]” value (Kv11.1 (hERG) channel) was “B*”.
`[2H]C1([2H])OC([2H])([2H])C([2H])([2H])N(c2ccc3c(-c4cc(C(O)c5ccc(OC)nn5)c(Cl)cc4F)ncnc3c2)C1([2H])[2H]` (stereo not shown) [Example 262, [2-Chloro-4-fluoro-5-[7-(2,2,3,3,5,5,6,6-octadeuterio-morpholin-4-yl)quinazolin-4-yl]phenyl]-(6-methoxypyridazin-3-yl)methanol] was tested, and the IC50 ([1]; phospho-serine 2056 DNA-PK) was under 0.5 µM and the “Ki [Kv1.11 hERG]” value (Kv11.1 (hERG) channel) was “A*”.
`COc1nccnc1C(O)c1cc(-c2ncnc3cc(N4CCOCC4)cc(F)c23)c(F)cc1Cl` (stereo not shown) [Example 250, [2-Chloro-4-fluoro-5-(5-fluoro-7-morpholin-4-yl-quinazolin-4-yl)-phenyl]-(3-methoxy-pyrazin-2-yl)-methanol] was tested, and the IC50 ([1]; phospho-serine 2056 DNA-PK) was under 0.5 µM and the “Ki [Kv1.11 hERG]” value (Kv11.1 (hERG) channel) was “A*”.
`CNC(=O)C(c1cc(-c2ncnc3cc(N4CCOCC4)ccc23)c(F)cc1Cl)c1nccnc1C` (stereo not shown) [Example 254, 2-[2-Chloro-4-fluoro-5-(7-morpholin-4-yl-quinazolin-4-yl)-phenyl]-N-methyl-2-(3-methyl-pyrazin-2-yl)acetamide] was tested, and the IC50 [1, 2] was 10 to 30 µM and the “Ki [Kv1.11 hERG]” value (Kv11.1 (hERG) channel) was “A*”.
With `COc1nccnc1C(O)c1ccc(F)c(-c2ncnc3cc(N4CCOCC4)cc(F)c23)c1` (stereo not shown) [Example 267, [4-Fluoro-3-(5-fluoro-7-morpholin-4-yl-quinazolin-4-yl)-phenyl]-(3-methoxy-pyrazin-2-yl)-methanol] the IC50 ([1]; phospho-serine 2056 DNA-PK) was under 0.5 µM and the “Ki [Kv1.11 hERG]” value (Kv11.1 (hERG) channel) was “A*”.

Reference: patent US11065253B2, “Arylquinazolines” (Merck Patent GmbH, priority 2013, dated 2021)
